From ChEMBL document CHEMBL1649265, “Antimicrobial susceptibilities of Mycoplasma genitalium strains examined by broth dilution and quantitative PCR” (2009)
In brackets after ≈: the same amount, converted by molar mass.

Legend:
Assay type in all cases: functional
Mycoplasma genitalium [1] = experiment: Antibacterial activity against Mycoplasma genitalium M6282 by broth dilution method; conditions: Mycoplasmoides genitalium
Mycoplasma genitalium [2] = experiment: Antibacterial activity against Mycoplasma genitalium M6286 by broth dilution method; conditions: Mycoplasmoides genitalium
Mycoplasma genitalium [3] = experiment: Antibacterial activity against Mycoplasma genitalium TW10-6G by broth dilution method; conditions: Mycoplasmoides genitalium, read-out: MIC
Mycoplasma genitalium [4] = experiment: Antibacterial activity against Mycoplasma genitalium M6257 by broth dilution method; conditions: Mycoplasmoides genitalium
Mycoplasma genitalium [5] = experiment: Antibacterial activity against Mycoplasma genitalium M6328 by broth dilution method; conditions: Mycoplasmoides genitalium
Mycoplasma genitalium [6] = experiment: Antibacterial activity against Mycoplasma genitalium M6090 by broth dilution method; conditions: Mycoplasmoides genitalium
Mycoplasma genitalium [7] = experiment: Antibacterial activity against Mycoplasma genitalium M6287 by broth dilution method; conditions: Mycoplasmoides genitalium
Mycoplasma genitalium [8] = experiment: Antibacterial activity against Mycoplasma genitalium by quantitative TaqMan PCR method; conditions: Mycoplasmoides genitalium
Mycoplasma genitalium [9] = experiment: Antibacterial activity against Mycoplasma genitalium M6285 by broth dilution method; conditions: Mycoplasmoides genitalium
Mycoplasma genitalium [10] = experiment: Antibacterial activity against Mycoplasma genitalium G37 by broth dilution method; conditions: Mycoplasmoides genitalium, read-out: MIC
Mycoplasma genitalium [11] = experiment: Antibacterial activity against Mycoplasma genitalium R32 by broth dilution method; conditions: Mycoplasmoides genitalium, read-out: MIC
Mycoplasma genitalium [12] = experiment: Antibacterial activity against Mycoplasma genitalium M2300 by broth dilution method; conditions: Mycoplasmoides genitalium
Mycoplasma genitalium [13] = experiment: Antibacterial activity against Mycoplasma genitalium M30 by broth dilution method; conditions: Mycoplasmoides genitalium, read-out: MIC
Mycoplasma genitalium [14] = experiment: Antibacterial activity against Mycoplasma genitalium by broth dilution method; conditions: Mycoplasmoides genitalium; for MIC50: read-out: MIC50; for MIC90: read-out: MIC90
Mycoplasma genitalium [15] = experiment: Antibacterial activity against Mycoplasma genitalium TW10-5G by broth dilution method; conditions: Mycoplasmoides genitalium, read-out: MIC
Mycoplasma genitalium [16] = experiment: Antibacterial activity against Mycoplasma genitalium M2282 by broth dilution method; conditions: Mycoplasmoides genitalium
Mycoplasma genitalium [17] = experiment: Antibacterial activity against Mycoplasma genitalium M2341 by broth dilution method; conditions: Mycoplasmoides genitalium
Mycoplasma genitalium [18] = experiment: Antibacterial activity against Mycoplasma genitalium M6284 by broth dilution method; conditions: Mycoplasmoides genitalium
Mycoplasma genitalium [19] = experiment: Antibacterial activity against Mycoplasma genitalium M6151 by broth dilution method; conditions: Mycoplasmoides genitalium
Mycoplasma genitalium [20] = experiment: Antibacterial activity against Mycoplasma genitalium M6283 by broth dilution method; conditions: Mycoplasmoides genitalium
Mycoplasma genitalium [21] = experiment: Antibacterial activity against Mycoplasma genitalium UTMB-10G by broth dilution method; conditions: Mycoplasmoides genitalium, read-out: MIC
Mycoplasma genitalium [22] = experiment: Antibacterial activity against Mycoplasma genitalium M6280 by broth dilution method; conditions: Mycoplasmoides genitalium
Mycoplasma genitalium [23] = experiment: Antibacterial activity against Mycoplasma genitalium TW48-5G by broth dilution method; conditions: Mycoplasmoides genitalium, read-out: MIC
Mycoplasma genitalium [24] = experiment: Antibacterial activity against Mycoplasma genitalium M2321 by broth dilution method; conditions: Mycoplasmoides genitalium

Compound | MIC (Mycoplasma genitalium [1]) [µg/mL] | MIC (Mycoplasma genitalium [2]) [µg/mL] | MIC (Mycoplasma genitalium [3]) [µg/mL] | MIC (Mycoplasma genitalium [4]) [µg/mL] | MIC (Mycoplasma genitalium [5]) [µg/mL] | MIC (Mycoplasma genitalium [6]) [µg/mL] | MIC (Mycoplasma genitalium [7]) [µg/mL] | MIC50 (Mycoplasma genitalium [8]) [µg/mL] | MIC90 (Mycoplasma genitalium [8]) [µg/mL] | MIC (Mycoplasma genitalium [9]) [µg/mL] | MIC (Mycoplasma genitalium [10]) [µg/mL] | MIC (Mycoplasma genitalium [11]) [µg/mL] | MIC (Mycoplasma genitalium [12]) [µg/mL] | MIC (Mycoplasma genitalium [13]) [µg/mL] | MIC50 (Mycoplasma genitalium [14]) [µg/mL] | MIC90 (Mycoplasma genitalium [14]) [µg/mL] | MIC (Mycoplasma genitalium [15]) [µg/mL] | MIC (Mycoplasma genitalium [16]) [µg/mL] | MIC (Mycoplasma genitalium [17]) [µg/mL] | MIC (Mycoplasma genitalium [18]) [µg/mL] | other results
N[C@@H]1CN(c2c(F)cc3c(=O)c(C(=O)O)cn([C@@H]4C[C@@H]4F)c3c2Cl)CC12CC2 [SITAFLOXACIN ANHYDROUS] | 0.008 (≈ 0.0195 µM) | 0.008 (≈ 0.0195 µM) | 0.063 (≈ 0.154 µM) | 0.008 (≈ 0.0195 µM) | 0.008 (≈ 0.0195 µM) | 0.008 (≈ 0.0195 µM) | 0.008 (≈ 0.0195 µM) | 0.063 (≈ 0.154 µM) | 0.125 (≈ 0.305 µM) | 0.008 (≈ 0.0195 µM) | 0.063 (≈ 0.154 µM) | 0.063 (≈ 0.154 µM) | 0.008 (≈ 0.0195 µM) | 0.063 (≈ 0.154 µM) | 0.063 (≈ 0.154 µM) | 0.125 (≈ 0.305 µM) | 0.063 (≈ 0.154 µM) | 0.008 (≈ 0.0195 µM) | 0.008 (≈ 0.0195 µM) | 0.008 (≈ 0.0195 µM) | MIC (Mycoplasma genitalium [19]): 0.008 µg/mL (≈ 0.0195 µM); MIC (Mycoplasma genitalium [20]): 0.008 µg/mL (≈ 0.0195 µM); MIC (Mycoplasma genitalium [21]): 0.063 µg/mL (≈ 0.154 µM); MIC (Mycoplasma genitalium [22]): 0.008 µg/mL (≈ 0.0195 µM); MIC (Mycoplasma genitalium [23]): 0.063 µg/mL (≈ 0.154 µM); MIC (Mycoplasma genitalium [24]): 0.008 µg/mL (≈ 0.0195 µM)
CN(C)[C@@H]1C(O)=C(C(N)=O)C(=O)[C@@]2(O)C(O)=C3C(=O)c4c(O)cccc4[C@@](C)(O)[C@H]3C[C@@H]12 [TETRACYCLINE] | 0.063 (≈ 0.142 µM) | 0.063 (≈ 0.142 µM) | 0.063 (≈ 0.142 µM) | 0.063 (≈ 0.142 µM) | 0.063 (≈ 0.142 µM) | 0.063 (≈ 0.142 µM) | 0.063 (≈ 0.142 µM) | 0.5 (≈ 1.13 µM) | 2 (≈ 4.5 µM) | 0.063 (≈ 0.142 µM) | 0.063 (≈ 0.142 µM) | 0.063 (≈ 0.142 µM) | 0.063 (≈ 0.142 µM) | 0.063 (≈ 0.142 µM) | 0.125 (≈ 0.281 µM) | 0.5 (≈ 1.13 µM) | 0.063 (≈ 0.142 µM) | 0.063 (≈ 0.142 µM) | 0.063 (≈ 0.142 µM) | 0.063 (≈ 0.142 µM) | MIC (Mycoplasma genitalium [19]): 0.063 µg/mL (≈ 0.142 µM); MIC (Mycoplasma genitalium [20]): 0.063 µg/mL (≈ 0.142 µM); MIC (Mycoplasma genitalium [21]): 0.063 µg/mL (≈ 0.142 µM); MIC (Mycoplasma genitalium [22]): 0.063 µg/mL (≈ 0.142 µM); MIC (Mycoplasma genitalium [23]): 0.063 µg/mL (≈ 0.142 µM); MIC (Mycoplasma genitalium [24]): 0.063 µg/mL (≈ 0.142 µM)
